Measured values: patent US20220235043A1, “SUBSTITUTED SULFONAMIDE PYRROLOPYRIDINES AS JAK INHIBITORS” (ACLARIS THERAPEUTICS, INC., priority 2019, published 2022)

Legend:
JAK3 (a.a. 781-1124) = biological target: T1, JAK3 (a.a. 781-1124) (Homo sapiens, UniProt P52333); assay: JAK3 enzyme activity assay (SRCtide phosphorylation, Caliper); assay type: biochemical; settings: 1 uM ATP; read-out: JAK3 Inhibition IC50
T1 construct: JAK3 (a.a. 781-1124, ThermoFisher); purchased ThermoFisher
Experimental: The activity of JAK3 (a.a. 781-1124, ThermoFisher) was quantified by measuring the phosphorylation of SRCtide (FAM-GEEPLYWSFPAKKK-NH2). Kinase reactions were run in a 384-well Greiner plate with 2% final DMSO concentration under the buffer conditions of 20 mM HEPES, pH 7.5, 10 mM MgCl2, 0.01% BSA, and 0.0005% Tween-20. The kinase reaction components were 2.5 nM JAK3, 1 μM SRCtide peptide and 1 uM ATP. Examples were tested in dose-response starting at […] (11 concentrations, 3-fold serial dilution, duplicate reactions). The reactions were incubated at room temperature for 40 minutes, then stopped by adding a 1:1 volume of 30 mM EDTA in 20 mM HEPES, pH 7.5 (15 mM EDTA final). After the reaction was stopped, the phosphorylated and unphosphorylated peptides were separated and quantified using a Caliper LC3000/EZ-Reader system and HTS Well Analyzer Software (Caliper, A PerkinElmer Company, Hopkinton, Mass.). GraFit (Erithacus Software Ltd., Horley, U.K.) was used to calculate inhibitor potency by fitting dose-response data to the 4-parameter logistical IC50 equation.

Tyk-2 = biological target: T2, Tyk-2 (Homo sapiens, UniProt P29597); assay: Tyk-2 enzyme activity assay (Thermo Fisher Selectscreen, Z-lyte); assay type: biochemical; settings: read-out: Tyk-2 Inhibition IC50
T2 construct: purchased Thermo Fisher Scientific (SelectScreen service)
Experimental: (§1) The inhibitory potency of candidate compounds of JAK1, JAK2, and Tyk-2 was done at Thermo Fisher Scientific in their Selectscreen using a Z-lyte assay. Following are the assay details for each enzyme.
TYK2: The 2×TYK2/Tyr 03 mixture is prepared in 50 mM HEPES pH 6.5, 0.01% BRIJ-35, 10 mM MgCl2, 1 mM EGTA, 0.02% NaN3. The final 10 μL Kinase Reaction consists of 3.75-15 ng TYK2 and 2 μM Tyr 03 in 50 mM HEPES pH 7.0, 0.01% BRIJ-35, 10 mM MgCl2, 1 mM EGTA, 0.01% NaN3. After the one hour KinaseReaction incubation, 5 μL of a 1:4096 dilution of Development Reagent A is added.
(§2) Data reduction for JAK1, JAK2 and TYK2 is done the same, independent of the enzyme run. In summary, background signal is defined in the absence of enzyme and uninhibited signal is defined in the presence of vehicle (2% DMSO) alone. Compounds were evaluated in an 11 point dose-response ranging from […] to 0.34 nM. IC50 values of compounds are determined using a 4 parameter logistical fit of emission ratio as a function of the concentration of compound.

JAK2 = biological target: T3, JAK2 (Homo sapiens, UniProt O60674); assay: JAK2 enzyme activity assay (Thermo Fisher Selectscreen, Z-lyte); assay type: biochemical; settings: read-out: JAK2 Inhibition IC50
T3 construct: purchased Thermo Fisher Scientific (SelectScreen service)
Experimental: as §1
JAK2: The 2×JAK2/Tyr 06 mixture is prepared in 50 mM HEPES pH 7.5, 0.01% BRIJ-35, 10 mM MgCl2, 1 mM EGTA. The final 10 μL Kinase Reaction consists of 0.12-0.5 ng JAK2 and 2 μM Tyr 06 in 50 mM HEPES pH 7.5, 0.01% BRIJ-35, 10 mM MgCl2, 1 mM EGTA. After the one hour Kinase Reaction incubation, 5 μL of a 1:128 dilution of Development Reagent A is added.
as §2

[1] = system: IL-2 stimulated STAT5 phosphorylation on Tyr694 (JAK1/3); assay: JAK1/3 cellular target modulation: IL-2 stimulated phospho-STAT5 in human PBMC; assay type: cell-based; settings: IL-2 25 ng/ml, read-out: IL2-STAT5 IC50
Description: (§3) Target modulation was based upon the ability of a compound to inhibit JAK isoform specific phosphorylation of selected substrates. IL-2 stimulated STAT5 phosphorylation on Tyr694 was used to assess JAK1/3 compound selectivity. GM-CSF stimulated STAT5 phosphorylation on Tyr694 was used to assess JAK2 compound selectivity. IFNγ stimulated STAT1 phosphorylation on Tyr701 was used to assess JAK1/2 compound selectivity. IL-12 stimulated STAT4 phosphorylation on Tyr693 was used to assess JAK2/TYK2 compound selectivity. For all four assays, human PBMC from frozen stocks were thawed, pelleted, resuspended in complete media (90% RPMI, 10% heat inactivated FBS, 10 mM HEPES, 47 μM 2-ME, pen/strep) and placed in wells of a 96 well V-bottom plate at 200,000 per well in 120 μl complete media. Compounds were added as 15 μl per well of 10× working stock solutions in complete media with 1% DMSO (or medium with 1% DMSO for controls) and placed on a plate shaker in a 37° C. incubator with 5% CO2 for 1 hour with gentle shaking (setting of 3). Stimulation used the addition of soluble cytokines. For the JAK1/3 phospho-STAT5 assay, 15 μl of 10× working stock recombinant human IL-2 was added to a final concentration of 25 ng/ml. For the JAK2 phospho-STAT5 assay, 15 μl of 10× working stock recombinant human GM-CSF was added to a final concentration of 5 ng/ml. For the JAK1/2 phospho-STAT1 assay, 15 μl of 10× working stock of recombinant human IFNγ was added to a final concentration of 10 ng/ml. For the JAK2/TYK2 phospho-STAT4 assay, 15 μl of 10× working stock of recombinant human IL-12 was added to a final concentration of 1.7 ng/ml. Plates were then placed back on the plate shaker in the incubator for an additional 5, 5, 10, and 25 minutes respectively upon which the plates were removed from the incubator, sealed with a plate sealer and the cells pelleted at 400×g for 5 minutes. After pelleting, the media was removed by aspiration and the cells were lysed in assay specific cell lysis buffer. The levels of phospho-STAT5 were determined using a Phospho (Tyr694)STAT5a,b Whole Cell Lysate kit from Meso Scale Discovery. Levels of phospho-STAT1 were determined using a CST-PathScan Phospho-STAT1 (Tyr701) Sandwich ELISA kit. Levels of phospho-STAT4 were determined using a Phospho-STAT4 (Tyr693) Whole Cell Lysate kit from Meso Scale Discovery.

JAK1 = biological target: T4, JAK1 (Homo sapiens, UniProt P23458); assay: JAK1 enzyme activity assay (Thermo Fisher Selectscreen, Z-lyte); assay type: biochemical; settings: read-out: JAK1 Inhibition IC50
T4 construct: purchased Thermo Fisher Scientific (SelectScreen service)
Experimental: as §1
JAK1: The 2×JAK-enzyme/Tyr 06 mixture is prepared in 50 mM HEPES pH 6.5, 0.01% BRIJ-35, 10 mM MgCl2, 1 mM EGTA, 0.02% NaN3. The final 10 μL of the Kinase Reaction consists of 21.2-91.5 ng JAK1 and 2 μM Tyr 06 in 50 mM HEPES pH 7.0, 0.01% BRIJ-35, 10 mM MgCl2, 1 mM EGTA, 0.01% NaN3. After the one hour Kinase Reaction incubation, 5 μL of a 1:128 dilution of Development Reagent is added.
as §2

[2] = system: IL-12 stimulated STAT4 phosphorylation on Tyr693 (JAK2/TYK2); assay: JAK2/TYK2 cellular target modulation: IL-12 stimulated phospho-STAT4 in human PBMC; assay type: cell-based; settings: IL-12 1.7 ng/ml, read-out: IL12-STAT4 IC50
Description: as §3

[3] = system: IFNγ stimulated STAT1 phosphorylation on Tyr701 (JAK1/2); assay: JAK1/2 cellular target modulation: IFNγ stimulated phospho-STAT1 in human PBMC; assay type: cell-based; settings: IFNγ 10 ng/ml, read-out: Infγ-STAT1 IC50
Description: as §3

T3 sequence (O60674 whole entry): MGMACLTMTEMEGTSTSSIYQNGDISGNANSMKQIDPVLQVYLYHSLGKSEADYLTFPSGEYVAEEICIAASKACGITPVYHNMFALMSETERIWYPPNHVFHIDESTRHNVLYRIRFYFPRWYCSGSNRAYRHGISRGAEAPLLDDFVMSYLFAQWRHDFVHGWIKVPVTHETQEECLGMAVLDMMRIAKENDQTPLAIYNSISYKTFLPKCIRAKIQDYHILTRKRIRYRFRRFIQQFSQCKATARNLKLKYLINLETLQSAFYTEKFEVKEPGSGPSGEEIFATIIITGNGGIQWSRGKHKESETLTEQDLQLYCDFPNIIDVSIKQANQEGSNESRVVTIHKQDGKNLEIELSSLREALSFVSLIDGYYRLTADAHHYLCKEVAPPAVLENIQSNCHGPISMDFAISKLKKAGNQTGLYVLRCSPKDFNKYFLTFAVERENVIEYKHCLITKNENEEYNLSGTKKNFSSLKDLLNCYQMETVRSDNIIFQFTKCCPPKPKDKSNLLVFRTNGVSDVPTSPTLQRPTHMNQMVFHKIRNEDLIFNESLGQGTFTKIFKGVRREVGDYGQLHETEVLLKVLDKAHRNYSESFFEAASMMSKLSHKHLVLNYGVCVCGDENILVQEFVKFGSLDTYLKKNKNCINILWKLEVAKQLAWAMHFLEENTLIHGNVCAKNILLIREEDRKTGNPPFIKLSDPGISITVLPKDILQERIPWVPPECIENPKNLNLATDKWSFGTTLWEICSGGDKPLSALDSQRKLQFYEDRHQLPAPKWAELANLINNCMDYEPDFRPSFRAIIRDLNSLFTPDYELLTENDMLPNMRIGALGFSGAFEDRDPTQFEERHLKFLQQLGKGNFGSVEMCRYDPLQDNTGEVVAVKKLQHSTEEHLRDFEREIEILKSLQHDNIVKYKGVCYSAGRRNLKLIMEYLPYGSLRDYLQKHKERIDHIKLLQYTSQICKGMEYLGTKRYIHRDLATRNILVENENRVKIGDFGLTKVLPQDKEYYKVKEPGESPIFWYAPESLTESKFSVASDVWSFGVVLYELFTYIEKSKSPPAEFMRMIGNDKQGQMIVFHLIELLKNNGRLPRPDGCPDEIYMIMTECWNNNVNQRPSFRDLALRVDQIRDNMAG
T4 sequence (P23458 whole entry): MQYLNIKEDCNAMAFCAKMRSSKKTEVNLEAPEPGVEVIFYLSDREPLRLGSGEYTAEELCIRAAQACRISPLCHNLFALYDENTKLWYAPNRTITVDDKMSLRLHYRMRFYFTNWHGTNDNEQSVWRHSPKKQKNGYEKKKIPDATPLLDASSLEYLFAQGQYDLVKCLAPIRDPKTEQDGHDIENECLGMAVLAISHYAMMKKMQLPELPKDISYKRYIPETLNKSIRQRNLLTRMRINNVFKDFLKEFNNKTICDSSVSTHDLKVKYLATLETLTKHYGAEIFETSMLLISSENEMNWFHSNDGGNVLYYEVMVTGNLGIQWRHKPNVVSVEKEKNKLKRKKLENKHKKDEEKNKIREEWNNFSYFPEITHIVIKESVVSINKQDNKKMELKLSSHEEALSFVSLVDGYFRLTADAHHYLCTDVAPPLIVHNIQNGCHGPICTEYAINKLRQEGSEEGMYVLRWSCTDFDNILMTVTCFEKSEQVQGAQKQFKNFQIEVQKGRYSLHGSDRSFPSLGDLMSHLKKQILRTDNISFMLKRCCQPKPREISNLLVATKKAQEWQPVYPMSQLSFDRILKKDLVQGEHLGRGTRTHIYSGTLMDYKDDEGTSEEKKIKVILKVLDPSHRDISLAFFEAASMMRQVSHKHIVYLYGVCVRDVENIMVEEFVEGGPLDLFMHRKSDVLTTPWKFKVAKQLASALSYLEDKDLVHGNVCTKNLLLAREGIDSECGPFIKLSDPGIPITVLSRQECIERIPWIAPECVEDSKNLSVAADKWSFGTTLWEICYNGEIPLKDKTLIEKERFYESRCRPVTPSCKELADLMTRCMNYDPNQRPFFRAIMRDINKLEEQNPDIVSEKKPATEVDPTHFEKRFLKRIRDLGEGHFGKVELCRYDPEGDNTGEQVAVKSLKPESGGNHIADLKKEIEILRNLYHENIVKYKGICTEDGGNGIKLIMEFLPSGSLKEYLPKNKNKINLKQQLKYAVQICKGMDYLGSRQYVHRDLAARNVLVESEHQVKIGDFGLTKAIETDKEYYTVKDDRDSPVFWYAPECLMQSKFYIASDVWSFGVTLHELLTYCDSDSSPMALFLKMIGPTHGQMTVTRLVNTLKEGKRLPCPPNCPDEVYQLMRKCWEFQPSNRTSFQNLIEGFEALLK
T1 sequence (P52333 781-1124): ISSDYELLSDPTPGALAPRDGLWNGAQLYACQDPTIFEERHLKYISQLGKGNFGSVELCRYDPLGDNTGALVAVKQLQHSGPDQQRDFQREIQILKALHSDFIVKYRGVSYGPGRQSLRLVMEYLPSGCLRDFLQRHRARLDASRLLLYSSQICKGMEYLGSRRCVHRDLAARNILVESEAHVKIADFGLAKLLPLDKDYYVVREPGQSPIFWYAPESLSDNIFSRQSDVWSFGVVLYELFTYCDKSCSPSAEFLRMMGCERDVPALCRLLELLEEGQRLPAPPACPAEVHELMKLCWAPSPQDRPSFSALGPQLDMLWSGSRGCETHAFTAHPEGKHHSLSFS
T2 sequence (P29597 whole entry): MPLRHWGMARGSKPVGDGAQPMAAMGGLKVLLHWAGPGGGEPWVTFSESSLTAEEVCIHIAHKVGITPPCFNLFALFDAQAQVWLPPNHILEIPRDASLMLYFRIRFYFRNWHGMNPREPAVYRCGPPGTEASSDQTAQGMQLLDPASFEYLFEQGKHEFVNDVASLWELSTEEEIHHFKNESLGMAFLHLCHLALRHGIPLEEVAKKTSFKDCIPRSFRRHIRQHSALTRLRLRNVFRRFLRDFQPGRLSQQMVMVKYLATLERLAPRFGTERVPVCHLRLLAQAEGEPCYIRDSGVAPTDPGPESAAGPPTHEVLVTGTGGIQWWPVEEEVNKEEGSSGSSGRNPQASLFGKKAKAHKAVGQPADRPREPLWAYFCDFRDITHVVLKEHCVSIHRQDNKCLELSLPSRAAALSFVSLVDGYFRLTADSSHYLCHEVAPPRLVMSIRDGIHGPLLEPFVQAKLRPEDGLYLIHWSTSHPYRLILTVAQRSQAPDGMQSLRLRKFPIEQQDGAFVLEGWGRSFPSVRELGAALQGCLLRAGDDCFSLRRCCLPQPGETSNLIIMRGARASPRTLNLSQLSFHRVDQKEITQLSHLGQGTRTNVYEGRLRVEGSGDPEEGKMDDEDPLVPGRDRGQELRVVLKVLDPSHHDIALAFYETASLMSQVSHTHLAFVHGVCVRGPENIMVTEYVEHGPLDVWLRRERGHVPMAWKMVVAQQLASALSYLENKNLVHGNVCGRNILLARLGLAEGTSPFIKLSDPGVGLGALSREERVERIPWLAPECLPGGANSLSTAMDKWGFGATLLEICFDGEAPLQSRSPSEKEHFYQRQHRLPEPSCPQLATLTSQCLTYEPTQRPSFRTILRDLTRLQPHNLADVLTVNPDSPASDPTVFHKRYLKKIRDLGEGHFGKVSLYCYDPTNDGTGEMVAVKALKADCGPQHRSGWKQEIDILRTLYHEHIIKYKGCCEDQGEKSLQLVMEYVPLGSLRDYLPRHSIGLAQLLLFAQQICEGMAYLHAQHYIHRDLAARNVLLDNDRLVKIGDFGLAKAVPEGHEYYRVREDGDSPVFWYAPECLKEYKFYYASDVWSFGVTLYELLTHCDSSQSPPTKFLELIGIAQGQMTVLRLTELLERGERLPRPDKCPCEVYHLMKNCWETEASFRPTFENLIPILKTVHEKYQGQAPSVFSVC

SMILES	IC50 (JAK3 (a.a. 781-1124)) [nM]	IC50 (Tyk-2) [nM]	IC50 (JAK2) [nM]	IC50 [1] [nM]	IC50 (JAK1) [nM]	IC50 [2] [nM]	IC50 [3] [nM]
Cc1nccc(-c2cnc3[nH]ccc3c2N[C@H]2C[C@@H](NS(=O)(=O)c3cccc(C#N)c3)C2)n1 [Example 84, 3-cyano-N-((1s,3s)-3-((5-(2-methylpyrimidin-4-yl)-1H-pyrrolo[2,3-b]pyridin-4-yl)amino)cyclobutyl)benzenesulfonamide]	≤ 10	≤ 10	≤ 10	≤ 100	≤ 10	> 1000	100 to 1000
N#Cc1cccc(S(=O)(=O)N[C@H]2C[C@@H](Nc3c(-c4nncs4)cnc4[nH]ccc34)C2)c1 [Example 78, N-((1s,3s)-3-((5-(1,3,4-thiadiazol-2-yl)-1H-pyrrolo[2,3-b]pyridin-4-yl)amino)cyclobutyl)-3-cyanobenzenesulfonamide]	10 to 100	≤ 10	≤ 10	≤ 100	≤ 10	> 1000	100 to 1000
CNC(=O)c1csc(-c2cnc3[nH]ccc3c2N[C@H]2C[C@@H](NS(=O)(=O)c3cccc(C#N)c3)C2)n1 [Example 21, 2-(4-(((1s,3s)-3-((3-cyanophenyl)sulfonamido)cyclobutyl)amino)-1H-pyrrolo[2,3-b]pyridin-5-yl)-N-methylthiazole-4-carboxamide]	10 to 100	10 to 100	≤ 10	100 to 1000	≤ 10	> 1000	100 to 1000
N#Cc1cccc(S(=O)(=O)N[C@H]2C[C@@H](Nc3c(-c4nnco4)cnc4[nH]ccc34)C2)c1 [Example 79, N-((1s,3s)-3-((5-(1,3,4-oxadiazol-2-yl)-1H-pyrrolo[2,3-b]pyridin-4-yl)amino)cyclobutyl)-3-cyanobenzenesulfonamide]	10 to 100	10 to 100	≤ 10	100 to 1000	≤ 10	> 1000	100 to 1000
Cc1csc(-c2cnc3[nH]ccc3c2N[C@H]2C[C@@H](NS(=O)(=O)c3cccc(C#N)c3)C2)n1 [Example 73, 3-cyano-N-((1s,3s)-3-((5-(4-methylthiazol-2-yl)-1H-pyrrolo[2,3-b]pyridin-4-yl)amino)cyclobutyl)benzenesulfonamide]	≤ 10	10 to 100	≤ 10	100 to 1000	≤ 10	100 to 1000	100 to 1000
N#Cc1cccc(S(=O)(=O)N[C@H]2C[C@@H](Nc3c(-c4ncco4)cnc4[nH]ccc34)C2)c1 [Example 7, 3-cyano-N-((1s,3s)-3-((5-(oxazol-2-yl)-1H-pyrrolo[2,3-b]pyridin-4-yl)amino)cyclobutyl)benzenesulfonamide]	10 to 100	10 to 100	≤ 10	100 to 1000	≤ 10	> 1000	100 to 1000
CCCS(=O)(=O)N[C@H]1C[C@@H](Nc2c(-c3nc(C(=O)NC)co3)cnc3[nH]ccc23)C1 [Example 71, N-methyl-2-(4-(((1s,3s)-3-(propylsulfonamido)cyclobutyl)amino)-1H-pyrrolo[2,3-b]pyridin-5-yl)oxazole-4-carboxamide]	10 to 100	100 to 1000	10 to 100	100 to 1000	≤ 10	> 1000	100 to 1000
N#Cc1cccc(S(=O)(=O)N[C@H]2C[C@@H](Nc3c(-c4ccncn4)cnc4[nH]ccc34)C2)c1 [Example 64, 3-cyano-N-((1s,3s)-3-((5-(pyrimidin-4-yl)-1H-pyrrolo[2,3-b]pyridin-4-yl)amino)cyclobutyl)benzenesulfonamide]	≤ 10	≤ 10	≤ 10	≤ 100	≤ 10	> 1000	100 to 1000
N#Cc1cccc(S(=O)(=O)N[C@H]2C[C@@H](Nc3c(-c4nccs4)cnc4[nH]ccc34)C2)c1 [Example 69, 3-cyano-N-((1s,3s)-3-((5-(thiazol-2-yl)-1H-pyrrolo[2,3-b]pyridin-4-yl)amino)cyclobutyl)benzenesulfonamide]	≤ 10	≤ 10	≤ 10	≤ 100	≤ 10	100 to 1000	100 to 1000
Cc1nnc(-c2cnc3[nH]ccc3c2N[C@H]2C[C@@H](NS(=O)(=O)c3cccc(C#N)c3)C2)o1 [Example 81, 3-cyano-N-((1s,3s)-3-((5-(5-methyl-1,3,4-oxadiazol-2-yl)-1H-pyrrolo[2,3-b]pyridin-4-yl)amino)cyclobutyl)benzenesulfonamide]	10 to 100	10 to 100	≤ 10	≤ 100	≤ 10	> 1000	100 to 1000
Cc1nccc(-c2cnc3[nH]ccc3c2N[C@H]2C[C@@H](NS(=O)(=O)c3cc(C#N)ccn3)C2)n1 [Example 85, 4-cyano-N-((1s,3s)-3-((5-(2-methylpyrimidin-4-yl)-1H-pyrrolo[2,3-b]pyridin-4-yl)amino)cyclobutyl)pyridine-2-sulfonamide]	10 to 100	10 to 100	≤ 10	100 to 1000	≤ 10	> 1000	100 to 1000
